Six molecules from ChEMBL document CHEMBL1127838, “Development of a receptor-interaction model for serotonin 5-HT2 receptor antagonists. Predicting selectivity with respect to dopamine D2 receptors” (J Med Chem, 1994) can be followed below.

The term IC50 denotes the midpoint of a concentration-inhibition curve. As a reminder, the Ki is a dissociation constant, usually derived from enzyme kinetics or from competition with a known ligand.

Assay [1] deals with Serotonin 2 (5-HT2) receptor (Rattus norvegicus, UniProt P30994+P08909+P14842). Briefly: Binding affinity at serotonin 5-hydroxytryptamine 2 receptor by [3H]ketanserin displacement. In kind it is protein assay.
The target in assay [2] is D(2) dopamine receptor (Rattus norvegicus, UniProt P61169). The assay can be described thus: Binding affinity at dopamine D2 receptor by [3H]spiperone displacement.
Sequence of D(2) dopamine receptor (P61169 whole entry): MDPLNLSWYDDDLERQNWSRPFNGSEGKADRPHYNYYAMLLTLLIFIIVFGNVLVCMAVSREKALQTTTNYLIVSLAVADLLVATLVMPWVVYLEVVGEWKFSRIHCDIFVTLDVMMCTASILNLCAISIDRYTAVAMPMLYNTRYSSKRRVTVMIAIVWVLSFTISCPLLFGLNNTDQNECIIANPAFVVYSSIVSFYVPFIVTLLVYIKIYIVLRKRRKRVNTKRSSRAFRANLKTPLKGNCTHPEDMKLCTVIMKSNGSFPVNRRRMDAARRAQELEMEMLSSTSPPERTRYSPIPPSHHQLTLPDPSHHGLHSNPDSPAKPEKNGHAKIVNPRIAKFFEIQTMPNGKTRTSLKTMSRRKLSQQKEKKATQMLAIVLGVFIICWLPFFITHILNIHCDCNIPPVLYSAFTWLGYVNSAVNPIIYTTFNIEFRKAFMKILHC

With `O=C1NCCN1CCN1CC=C(c2cn(-c3ccc(F)cc3)c3ccccc23)CC1`, the IC50 in assay [1] was determined as 1.7 nM; in assay [2] (read-out: IC50) it was 5.1 nM.
As for `O=C1NCCN1CCN1CCN([C@@H]2C[C@@H](c3ccc(F)cc3)c3cc(Cl)ccc32)CC1`, the IC50 in assay [1] was 2.6 nM.
The molecule `CN1CCC(=C2c3ccccc3C=Cc3ccc(Br)cc32)CC1` showed a Ki in assay [2] of 4 nM.
In the case of `CN1CCC(=C2c3ccccc3C(O)c3ccccc32)CC1` (stereo not drawn), the IC50 in assay [1] came out at 2.6 nM; in assay [2] (read-out: IC50) it was 1600 nM.
`CN1CCC(=C2c3ccccc3C=Cc3ccccc32)CC1` [CYPROHEPTADINE]: the IC50 in assay [2] worked out at 140 nM.
For `OCCN1CCN([C@@H]2C[C@@H](c3ccc(F)cc3)c3ccc(C(F)(F)F)cc32)CC1` [TEFLUDAZINE], in assay [1], the IC50 was determined as 3.1 nM.
